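Tested at 5 concentrations; 48 h exposure; 96-well plates; endpoints linearly interpolated, else capped at highest concentration. Here, GI50 denotes the concentration required for 50% inhibition of growth. TGI denotes the concentration required for complete inhibition of growth.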
Tests used:
Experiment in all cases: NCI anticancer screen, dose series, 48 h
[1] = system: UO-31 renal
[2] = system: SK-MEL-5 melanoma
[3] = system: SK-MEL-2 melanoma
[4] = system: TK-10 renal
[5] = system: OVCAR-4 ovarian
[6] = system: 786-0 renal
[7] = system: EKVX NSCLC
[8] = system: NCI-H522 lung
[9] = system: MDA-MB-231 breast
[10] = system: KM12 colon
[11] = system: RPMI-8226 leukemia
[12] = system: OVCAR-3 ovarian
[13] = system: MCF7 breast
[14] = system: K-562 leukemia
[15] = system: HS 578T breast
[16] = system: SNB-75 CNS
[17] = system: UACC-62 melanoma
[18] = system: UACC-257 melanoma
[19] = system: CAKI-1 renal
[20] = system: MALME-3M melanoma
[21] = system: U251 CNS
[22] = system: HL-60(TB) leukemia
[23] = system: SNB-19 CNS
[24] = system: SN12C renal
[25] = system: SR leukemia
[26] = system: SW-620 colon
[27] = system: ACHN renal
[28] = system: MOLT-4 leukemia
[29] = system: A498 renal
[30] = system: HCT-15 colon
[31] = system: MDA-MB-435
[32] = system: HCT-116 colon
[33] = system: SF-268 CNS
[34] = system: T-47D breast
[35] = system: LOX IMVI melanoma
[36] = system: COLO 205 colon
[37] = system: SK-MEL-28 melanoma
[38] = system: A549 NSCLC
[39] = system: DU-145 prostate
[40] = system: HT29 colon
[41] = system: BT-549 breast
[42] = system: HOP-92 NSCLC
[43] = system: NCI-H460 lung
[44] = system: RXF 393 renal
[45] = system: NCI/ADR-RES ovarian
[46] = system: HOP-62 NSCLC
[47] = system: HCC-2998 colon
[48] = system: SF-295 CNS
[49] = system: PC-3 prostate
[50] = system: NCI-H226 lung
[51] = system: M14 melanoma
[52] = system: SF-539 CNS
[53] = system: CCRF-CEM leukemia
[54] = system: IGROV1 ovarian
[55] = system: OVCAR-5 ovarian
[56] = system: NCI-H23 lung

`CCOC(=O)c1c(NCC(=O)Nc2cccc([N+](=O)[O-])c2)sc(C(C)=O)c1C` was tested, and the GI50 [1] was 1270 nM, the TGI [1] was 2620 nM and the GI50 [2] was 1680 nM. The TGI [2] was 3170 nM, the GI50 [3] was 2010 nM and the TGI [3] was 4840 nM. The GI50 [4] was 2100 nM, the TGI [4] was 6810 nM and the GI50 [5] was 2230 nM. It also gave a TGI [5] of 6360 nM, a GI50 [6] of 1970 nM and a TGI [6] of 4210 nM. It also gave a GI50 [7] of 2100 nM, a TGI [7] of 5520 nM and a GI50 [8] of 1280 nM. The TGI [8] was 4120 nM, the GI50 [9] was 2120 nM and the TGI [9] was 4770 nM. The GI50 [10] was 2610 nM, the TGI [10] was 7990 nM and the GI50 [11] was 2510 nM. It also gave a TGI [11] of 6790 nM, a GI50 [12] of 2290 nM and a TGI [12] of 5690 nM. It also gave a GI50 [13] of 1440 nM, a TGI [13] of 5210 nM and a GI50 [14] of 1890 nM. For the same compound, the TGI [14] was > 100000 nM, the GI50 [15] was 2050 nM and the TGI [15] was 5970 nM. The GI50 [16] was 2030 nM, the TGI [16] was 5610 nM and the GI50 [17] was 574 nM. It also gave a TGI [17] of 2140 nM, a GI50 [18] of 2500 nM and a TGI [18] of 7470 nM. For the same compound, the GI50 [19] was 1270 nM, the TGI [19] was 3650 nM and the GI50 [20] was 1510 nM. It also gave a TGI [20] of 3060 nM, a GI50 [21] of 2360 nM and a TGI [21] of 9140 nM. The GI50 [22] was 2570 nM, the TGI [22] was 14200 nM and the GI50 [23] was 2310 nM. It also gave a TGI [23] of 6500 nM, a GI50 [24] of 1840 nM and a TGI [24] of 5400 nM. The GI50 [25] was 646 nM, the TGI [25] was > 100000 nM and the GI50 [26] was 491 nM. For the same compound, the TGI [26] was 7690 nM, the GI50 [27] was 1500 nM and the TGI [27] was 2900 nM. The GI50 [28] was 570 nM, the TGI [28] was > 100000 nM and the GI50 [29] was 1700 nM. For the same compound, the TGI [29] was 3310 nM, the GI50 [30] was 845 nM and the TGI [30] was 5350 nM. The GI50 [31] was 1680 nM, the TGI [31] was 3100 nM and the GI50 [32] was 1710 nM. It also gave a TGI [32] of 5020 nM, a GI50 [33] of 2110 nM and a TGI [33] of 5160 nM. It also gave a GI50 [34] of 2310 nM, a TGI [34] of 6710 nM and a GI50 [35] of 411 nM. For the same compound, the TGI [35] was 1670 nM, the GI50 [36] was 1650 nM and the TGI [36] was 4600 nM. It also gave a GI50 [37] of 1780 nM, a TGI [37] of 3710 nM and a GI50 [38] of 2570 nM. For the same compound, the TGI [38] was 8020 nM, the GI50 [39] was 2210 nM and the TGI [39] was 5910 nM. It also gave a GI50 [40] of 797 nM, a TGI [40] of 3260 nM and a GI50 [41] of 1440 nM. The TGI [41] was 4850 nM, the GI50 [42] was 1680 nM and the TGI [42] was 4560 nM. It also gave a GI50 [43] of 1210 nM, a TGI [43] of 3260 nM and a GI50 [44] of 1210 nM. The TGI [44] was 2510 nM, the GI50 [45] was 1770 nM and the TGI [45] was 5390 nM. The GI50 [46] was 2500 nM, the TGI [46] was 6580 nM and the GI50 [47] was 1980 nM. It also gave a TGI [47] of 3910 nM, a GI50 [48] of 2170 nM and a TGI [48] of 5110 nM. For the same compound, the GI50 [49] was 794 nM, the TGI [49] was 3630 nM and the GI50 [50] was 1640 nM. The TGI [50] was 4460 nM, the GI50 [51] was 1500 nM and the TGI [51] was 3280 nM. It also gave a GI50 [52] of 1820 nM, a TGI [52] of 4480 nM and a GI50 [53] of 585 nM. For the same compound, the TGI [53] was > 100000 nM, the GI50 [54] was 414 nM and the TGI [54] was 1620 nM. For the same compound, the GI50 [55] was 1420 nM, the TGI [55] was 4190 nM and the GI50 [56] was 1140 nM. For the same compound, the TGI [56] was 3450 nM.

Source: PubChem BioAssay (NCI)
